According to ChEMBL document CHEMBL3525933 (Drug Metab Dispos, 2012):

Assays:
[1] = Drug excretion in streptozotocin-induced diabetic Wistar rat urine treated with mangiferin at 400 mg/kg, po administered as single dose by HPLC-DAD analysis; format: ADME, organism-based; parameters: dose 400 mg/kg, route oral; conditions: in vivo
Rattus norvegicus = species: Rattus norvegicus; assay: Drug retention time in Wistar rat by HPLC-DAD analysis; format: ADME, organism-based

- Drug excretion [1]: metabolite_detected
- Retention_time (Rattus norvegicus): 40.4 min
SMILES: O=c1c2cc(O)ccc2oc2cccc(O)c12
